Measured values: patent US10189842B2 (Agency for Science, Technology and Research, priority 2013, dated 2019)

Test system: HEK293-STF3A cells
Test: STF3A assay (luciferase reporter)
Assay type: cell-based, Human
Conditions: Homo sapiens, 24 h, 1 day of treatment
Procedure, shortened: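 HEK293 cells carrying the STF reporter and expressing Wnt3A, seeded 2×10^4 per well overnight, then treated 1 day with compound at final 50 μM to 1.5 nM. Luciferase activity read by luminescence after Steady-Glo reagent, 10 min at room temperature.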

Structure (SMILES)	IC50
Cc1cc2n(n1)CCCN2C(=O)CCC(=O)Nc1ccc(-c2cccnc2)cn1 [Compound 49, 4-{2-methyl-5H,6H,7H-pyrazolo[1,5-a]pyrimidin-4-yl}-4-oxo-N-[5-(pyridin-3-yl)pyridin-2-yl]butanamide]	< 100 nM
Cc1cc2n(n1)CCCN2C(=O)CCC(=O)Nc1cc(-c2ccc(Cl)c(Cl)c2)no1 [Compound 7, N-(3-(3,4-dichlorophenyl)isoxazol-5-yl)-4-(2-methyl-6,7-dihydropyrazolo[1,5-a]pyrimidin-4(5H)-yl)-4-oxobutanamide]	> 10000 nM
Cc1cc2n(n1)CC(C)CN2C(=O)CCC(=O)Nc1cc(F)c(-c2cccnc2)cn1 (centres unmarked) [Compound 165, 4-(2,6-dimethyl-6,7-dihydropyrazolo[1,5-a]pyrimidin-4(5H)-yl)-N-(4-fluoro-[3,3′-bipyridin]-6-yl)-4-oxobutanamide]	< 100 nM
Cc1cc2n(n1)CCCN2C(=O)CCC(=O)Nc1ccc(-c2ccc(F)cc2)cn1 [Compound 90, N-(5-(4-fluorophenyl)pyridin-2-yl)-4-(2-methyl-6,7-dihydropyrazolo[1,5-a]pyrimidin-4(5H)-yl)-4-oxobutanamide]	< 100 nM
Cc1cc2n(n1)CCCN2C(=O)CCC(=O)Nc1ccc(-c2cccc(C(=O)O)c2)cc1 [Compound 67, 4′-(4-(2-methyl-6,7-dihydropyrazolo[1,5-a]pyrimidin-4(5H)-yl)-4-oxobutanamido)-[1,1′-biphenyl]-3-carboxylic acid]	> 10000 nM
Cc1cc2n(n1)CCCN2C(=O)CCC(=O)Nc1ccc(-c2ccc(F)cc2)nc1 [Compound 87, N-(6-(4-fluorophenyl)pyridin-3-yl)-4-(2-methyl-6,7-dihydropyrazolo[1,5-a]pyrimidin-4(5H)-yl)-4-oxobutanamide]	< 1000 nM
Cc1cccc(-c2cnc(NC(=O)CCC(=O)N3CCCn4nc(C)cc43)cn2)c1 [Compound 126, 4-(2-methyl-6,7-dihydropyrazolo[1,5-a]pyrimidin-4(5H)-yl)-4-oxo-N-(5-(m-tolyl)pyrazin-2-yl)butanamide]	< 100 nM
Cc1cc2n(n1)CCCN2C(=O)CCC(=O)Nc1cc(-c2cc(Cl)ccn2)no1 [Compound 16, N-(3-(4-chloropyridin-2-yl)isoxazol-5-yl)-4-(2-methyl-6,7-dihydropyrazolo[1,5-a]pyrimidin-4(5H)-yl)-4-oxobutanamide]	> 10000 nM
COc1cc2n(n1)CCCN2C(=O)CCC(=O)Nc1cc(-c2cccc(Cl)c2)no1 [Compound 135, N-(3-(3-chlorophenyl)isoxazol-5-yl)-4-(2-methoxy-6,7-dihydropyrazolo[1,5-a]pyrimidin-4(5H)-yl)-4-oxobutanamide]	> 10000 nM
Cc1ccc(-c2ccc(NC(=O)CCC(=O)N3CCCn4nc(C)cc43)cn2)cn1 [Compound 113, 4-(2-methyl-6,7-dihydropyrazolo[1,5-a]pyrimidin-4(5H)-yl)-N-(6′-methyl-[2,3′-bipyridin]-5-yl)-4-oxobutanamide]	< 100 nM
Cc1cc2n(n1)CCCN2C(=O)CCC(=O)Nc1ccc(-c2cncc(C(F)(F)F)c2)nn1 [Compound 105, 4-(2-methyl-6,7-dihydropyrazolo[1,5-a]pyrimidin-4(5H)-yl)-4-oxo-N-(6-(5-(trifluoromethyl)pyridin-3-yl)pyridazin-3-yl)butanamide]	< 100 nM
Cc1cccc(-c2ccc(NC(=O)CCC(=O)N3CCCn4nc(C)cc43)nc2)c1 [Compound 93, 4-(2-methyl-6,7-dihydropyrazolo[1,5-a]pyrimidin-4(5H)-yl)-4-oxo-N-(5-(m-tolyl)pyridin-2-yl)butanamide]	< 100 nM
Cc1cc2n(n1)C[C@@H](C)CN2C(=O)CCC(=O)Nc1ccc(-c2cccnc2)cn1 [Compound 169, N-(3,3′-bipyridin-6-yl)-4-(2,6-dimethyl-6,7-dihydropyrazolo[1,5-a]pyrimidin-4(5H)-yl)-4-oxobutanamide]	< 100 nM
Cc1cc2n(n1)CCCN2C(=O)CCC(=O)Nc1ccc(-c2ccccc2)cc1C [Compound 53, 4-(2-methyl-6,7-dihydropyrazolo[1,5-a]pyrimidin-4(5H)-yl)-N-(3-methyl-[1,1′-biphenyl]-4-yl)-4-oxobutanamide]	> 10000 nM
Cc1cc2n(n1)CCCN2C(=O)CCC(=O)Nc1cc(C)c(-c2cccnc2)cn1 [Compound 119, N-(4-methyl-3,3′-bipyridin-6-yl)-4-(2-methyl-6,7-dihydropyrazolo[1,5-a]pyrimidin-4(5H)-yl)-4-oxobutanamide]	< 5000 nM
Cc1cc2n(n1)CCCN2C(=O)CCC(=O)Nc1ccc(-c2cnccn2)cc1 [Compound 129, 4-(2-methyl-6,7-dihydropyrazolo[1,5-a]pyrimidin-4(5H)-yl)-4-oxo-N-(4-(pyrazin-2-yl)phenyl)butanamide]	< 100 nM
Cc1cc2n(n1)CCCN2C(=O)CCC(=O)Nc1ccc(-c2cncc(Cl)c2)cn1 [Compound 114, N-(5′-chloro-[3,3′-bipyridin]-6-yl)-4-(2-methyl-6,7-dihydropyrazolo[1,5-a]pyrimidin-4(5H)-yl)-4-oxobutanamide]	< 100 nM
Cc1cc2n(n1)CCCN2C(=O)CCC(=O)Nc1cnc(-c2cccnc2)cn1 [Compound 52, 4-(2-methyl-6,7-dihydropyrazolo[1,5-a]pyrimidin-4(5H)-yl)-4-oxo-N-(5-(pyridin-3-yl)pyrazin-2-yl)butanamide]	< 100 nM

Structure (SMILES)	IC50
Cc1cccc(-c2ccc(NC(=O)CCC(=O)N3CCCn4nc(C)cc43)nc2)n1 [Compound 96, 4-(2-methyl-6,7-dihydropyrazolo[1,5-a]pyrimidin-4(5H)-yl)-N-(6-methyl-[2,3′-bipyridin]-6′-yl)-4-oxobutanamide]	< 100 nM
Cc1cc2n(n1)CCCN2C(=O)CCC(=O)Nc1ccc(-c2ccccc2)nn1 [Compound 45, 4-(2-methyl-6,7-dihydropyrazolo[1,5-a]pyrimidin-4(5H)-yl)-4-oxo-N-(6-phenylpyridazin-3-yl)butanamide]	< 100 nM
Cc1cc(NC(=O)CCC(=O)N2CCCn3nc(C)cc32)on1 [Compound 1, 4-(2-methyl-6,7-dihydropyrazolo[1,5-a]pyrimidin-4(5H)-yl)-N-(3-methylisoxazol-5-yl)-4-oxobutanamide]	> 10000 nM
COc1cc(NC(=O)CCC(=O)N2CCCn3nc(C)cc32)ccc1-c1ccccc1 [Compound 56, N-(2-methoxy-[1,1′-biphenyl]-4-yl)-4-(2-methyl-6,7-dihydropyrazolo[1,5-a]pyrimidin-4(5H)-yl)-4-oxobutanamide]	< 5000 nM
Cc1ccc(-c2ccc(NC(=O)CCC(=O)N3CCCn4nc(C)cc43)nn2)cn1 [Compound 107, 4-(2-methyl-6,7-dihydropyrazolo[1,5-a]pyrimidin-4(5H)-yl)-N-(6-(6-methylpyridin-3-yl)pyridazin-3-yl)-4-oxobutanamide]	< 100 nM
Cc1cc2n(n1)CCCN2C(=O)CCC(=O)Nc1ccc(-c2cncnc2)cn1 [Compound 153, 4-(2-methyl-6,7-dihydropyrazolo[1,5-a]pyrimidin-4(5H)-yl)-4-oxo-N-(5-(pyrimidin-5-yl)pyridin-2-yl)butanamide]	< 100 nM
Cc1cc2n(n1)CCCN2C(=O)CCC(=O)Nc1ccc(-c2cnco2)cc1 [Compound 24, 4-(2-methyl-6,7-dihydropyrazolo[1,5-a]pyrimidin-4(5H)-yl)-N-(4-(oxazol-5-yl)phenyl)-4-oxobutanamide]	< 5000 nM
Cc1cc2n(n1)CCCN2C(=O)CCC(=O)Nc1ccc(-c2cnccn2)nc1 [Compound 166, 4-(2-methyl-6,7-dihydropyrazolo[1,5-a]pyrimidin-4(5H)-yl)-4-oxo-N-(6-(pyrazin-2-yl)pyridin-3-yl)butanamide]	< 1000 nM
Cc1cc2n(n1)CCCN2C(=O)CCC(=O)Nc1ccc(-c2cccc(Cl)c2)cn1 [Compound 88]	< 100 nM
Cc1cncc(-c2ccc(NC(=O)CCC(=O)N3CCCn4nc(C)cc43)nc2)c1 [Compound 116, 4-(2-methyl-6,7-dihydropyrazolo[1,5-a]pyrimidin-4(5H)-yl)-N-(5′-methyl-[3,3′-bipyridin]-6-yl)-4-oxobutanamide]	< 100 nM
Cc1cccc(-c2ccc(NC(=O)CCC(=O)N3CCCn4nc(C)cc43)cc2)c1 [Compound 59, 4-(2-methyl-6,7-dihydropyrazolo[1,5-a]pyrimidin-4(5H)-yl)-N-(3′-methyl-[1,1′-biphenyl]-4-yl)-4-oxobutanamide]	< 100 nM
Cc1cc2n(n1)CCCN2C(=O)CCC(=O)Nc1ccc(-c2ccccc2N)cc1 [Compound 69, N-(2′-amino-[1,1′-biphenyl]-4-yl)-4-(2-methyl-6,7-dihydropyrazolo[1,5-a]pyrimidin-4(5H)-yl)-4-oxobutanamide]	< 1000 nM
COc1cc(-c2ccccc2)ccc1NC(=O)CCC(=O)N1CCCn2nc(C)cc21 [Compound 55, N-(3-methoxy-[1,1′-biphenyl]-4-yl)-4-(2-methyl-6,7-dihydropyrazolo[1,5-a]pyrimidin-4(5H)-yl)-4-oxobutanamide]	> 10000 nM
Cc1cc2n(n1)CCCN2C(=O)CCC(=O)Nc1cc(-c2cncc(Cl)c2)no1 [Compound 18, N-[3-(5-chloropyridin-3-yl)-1,2-oxazol-5-yl]-4-{2-methyl-5H,6H,7H-pyrazolo[1,5-a]pyrimidin-4-yl}-4-oxobutanamide]	< 5000 nM
Cc1cc2n(n1)CCCN2C(=O)CCC(=O)Nc1ccc(-c2ccccc2C)cc1 [Compound 58, 4-(2-methyl-6,7-dihydropyrazolo[1,5-a]pyrimidin-4(5H)-yl)-N-(2′-methyl-[1,1′-biphenyl]-4-yl)-4-oxobutanamide]	< 100 nM
Cc1cc2n(n1)CCCN2C(=O)CCC(=O)Nc1ccc(-c2cncc(F)c2)nc1 [Compound 109, N-(5′-fluoro-[2,3′-bipyridin]-5-yl)-4-(2-methyl-6,7-dihydropyrazolo[1,5-a]pyrimidin-4(5H)-yl)-4-oxobutanamide]	< 100 nM
Cc1cncc(-c2ccc(NC(=O)CCC(=O)N3CC(C)Cn4nc(C)cc43)cn2)c1 (centres unmarked) [Compound 144, 4-(2,6-dimethyl-6,7-dihydropyrazolo[1,5-a]pyrimidin-4(5H)-yl)-N-(5′-methyl-[2,3′-bipyridin]-5-yl)-4-oxobutanamide]	< 100 nM
